Test results from US20090197811A1, “ORALLY ADMINISTERED PEPTIDES TO IMPROVE OR PREVENT HEPATIC FIBROSIS” (University of Southern California, priority 2007, published 2009).
Non-standard residues stand in square brackets, D forms with d.

Tested on: C57Bl/6J mice
Test: Western diet model: biochemical findings and liver and body weights
Type: in vivo, mouse
Conditions: for GSH / TBARS: liver; for ALT / AST / Adiponectin / Cholesterol / Glucose / Insulin / Leptin / Triglycerides: serum
Protocol: SR141716 was a kind gift from Sanofi-Aventis, France. SR141716 was dissolved in water with 0.1% Tween and given daily by gavage for 10 weeks. D-4F is an 18-mer of D-amino acids (Ac-D-W-F-K-A-F-Y-D-K-V-A-E-K-F-K-E-A-F-NH2)^4 (SEQ ID NO: 1) that was commercially synthesized (A & A Laboratories, San Diego Calif.) with 80% purity. D-4F was dissolved in the drinking water at a concentration of 60 μg/ml water for a calculated dose corrected for drug purity of 125 μg D-4F/mouse/day.
The high fat diet used was the RD “Western diet” (Research Diets, D12079B), which contains 41% of calories from fat, 43% calories from carbohydrate, and 17% of calories from protein); this diet was designed to approximate the “typical” human diet of North America and Europe.
Studies were performed in male C5713L/6J mice (Jackson Laboratories, Bar Harbor Me.). Six groups were studied (n=3-5, see FIG. 1) with 4 mice per group at the outset, except for group 2, which was started with n=5; 1 mouse died in group 1. Groups 1, 2, and 3 received the Western diet for 9.5 months; during the last 2.5 months of the 9.5 months, group 2 received SR141716 10 mg/kg/day i.g., and group 3 received D-4F, 125 μg/mouse/day, in the drinking water. Groups 4, 5, and 6 received the Western diet for 7 months followed by standard chow for 2.5 months; during the 2.5 months on standard chow, group 5 received SR141716 and group 6 received D-4F as described for groups 2 and 3, respectively. Additional control groups were studied: 6-month old C57Bl/6J mice as age-matched controls (n=5) and C57Bl/6J mice that received the Western diet for 6 months (n=6).
Serum aspartate amino transferase (AST) and alanine aminotransferase (ALT) were measured with the Infinity AST and ALT liquid assay reagent (Thermo Electron Corporation, Louisville Colo., cat #TR70121 and TR71121). Serum triglycerides and cholesterol were measured with the Infinity cholesterol assay reagent (Thermo Electron Corporation, Louisville Colo., cat #TR22321 and TR13315). Serum glucose was measured with the Glucose (HK) assay kit (Sigma, St. Louis, Mo., cat #GAHK-20). Serum insulin was measured with the Mercodia Ultrasensitive mouse insulin ELISA kit (ALPCO Diagnostics, Salem N.H., cat #10 1150-01). The homeostasis model assessment insulin resistance index (HOMA-IR) was calculated as [fasting glucose (mmol/liter)*fasting insulin (microunits/ml)]/22.5^17, 18. Serum leptin was measured with the TiterZyme EIA mouse leptin kit (Assay Designs Inc, Ann Arbor Mich., cat #900-019). Serum adiponectin was measured with the mouse adiponectin kit (Biovendor LLC, Candler N.C., cat #RD 293023100). Thiobarbituric acid reactive substance (TBARS) was measured as previously described^19, 20; in brief, liver was homogenized and diluted 1:1 in 10% ice cold trichloroacetic acid. 0.5 ml supernatant or of a standard solution of 1,1,3,3-tetraethoxypropane was mixed with 0.5 ml of 0.6% (w/v) 4,6-dihydroxy-2-thiopyrimidine. The solution was boiled for 30 min, cooled and centrifuged. Absorbance was measured at 532 nm with a Shimadzu TV-2101 PC spectrophotometer. To measure hepatic glutathione (GSH), liver was homogenized and diluted 1:1 in 10% ice cold trichloroacetic acid. GSH in the supernatant was measured according to the recycling assay of Tietze^21.

[1] = 7 months Western diet followed by 2.5 months Western diet + drug
[2] = 7 months Western diet followed by 2.5 months chow + drug
[3] = group 3 vs group 1, Western diet 9.5 months, D-4F last 2.5 months

Ac-D-W-F-K-A-F-Y-D-K-V-A-E-K-F-K-E-A-F-NH2 (Ac-[dD][dW][dF][dK][dA][dF][dY][dD][dK][dV][dA][dE][dK][dF][dK][dE][dA][dF]-NH2; not fully specified; printed as Ac-D-W-F-K-A-F-Y-D-K-V-A-E-K-F-K-E-A-F-NH2) [D-4F]
Body weight [1]: 39.5 ± 0.8 g
HOMA-IR [1]: 63.3 ± 23.5
Liver weight [1]: 2.42 ± 0.04 g
Body weight [2]: 35.9 ± 3.2 g
HOMA-IR [2]: 16.5 ± 2.2
Liver weight [2]: 1.67 ± 0.19 g
body weight, liver weight, serum transaminases, hyperglycemia, hyperinsulinemia, insulin resistance, overall hepatic oxidative stress [3]: no improvement
leptin levels compared to mice on Western diet alone [3]: decreased by half
total cholesterol compared to mice on Western diet alone [3]: decreased by half
GSH [1]: 50.1 ± 5.8 nmole/mg protein
TBARS [1]: 29.4 ± 2.4 nmol/g tissue
GSH [2]: 82.8 ± 5.2 nmole/mg protein
TBARS [2]: 20.0 ± 0.6 nmol/g tissue
ALT [1]: 277.3 ± 18.2 U/L
AST [1]: 211.9 ± 19.1 U/L
Adiponectin [1]: 15.3 ± 1.0 µg/mL
Cholesterol [1]: 146.8 ± 2.1 mg/dL
Glucose [1]: 231.2 ± 18.0 mg/dL
Insulin [1]: 3.7 ± 1.1 ng/mL
Leptin [1]: 17.49 ± 1.41 ng/mL
Triglycerides [1]: 40.0 ± 6.7 mg/dL
ALT [2]: 69.1 ± 21.5 U/L
AST [2]: 104.2 ± 22.4 U/L
Adiponectin [2]: 18.52 ± 1.5 µg/mL
Cholesterol [2]: 120.8 ± 2.9 mg/dL
Glucose [2]: 159.2 ± 2.4 mg/dL
Insulin [2]: 1.46 ± 0.2 ng/mL
Leptin [2]: 8.70 ± 1.43 ng/mL
Triglycerides [2]: 49.1 ± 1.4 mg/dL
